Laboratory results as given in US20130302889A1, “Differentiation of Bone Marrow Cells into Neuronal Cells and Uses Therefor” (Philadelphia Health and Education Corporation, priority 2002, published 2013).
“Also recorded” adds a separate entry of the source.

What was measured:
[1] = test system: rMSCs; experiment: Neuronal differentiation of rMSCs (morphology); assay type: cell-based, rat; conditions: for neuronal morphologies elicited by anti-oxidant treatment: alone and in combination, time course similar to BME
Procedure: Rat MSCs were originally cultured in alpha-Modified Eagle's Medium (alpha-MEM) supplemented with 20% FBS, 2 mM L-glutamine, 100 units per milliliter penicillin, […] streptomycin and 25 nanogramps per milliliter amphotericin B. For each passage the cells were plated at about 8,000 cells per square centimeter and grown to confluency. At passage 6 the cells were transferred to DMEM (pH 8.0)/20% FBS without additional supplementation, and maintained beyond passage 14. The rat MSCs were obtained with a protocol and procedures approved by the Institutional IACUC. The human samples were obtained from volunteers with informed consent and according to a protocol approved by the Institutional Review Board.
To induce the neuronal phenotype, rMSCs were initially maintained in sub-confluent cultures in media supplemented with 1 mM beta-mercaptoethanol (BME) for 24 hours. […] To effect neuronal differentiation, the cells were transferred to serum-free medium containing 1-10 millimolar BME (SFM/BME). […] Within 60 minutes of exposure to SFM/BME changes in morphology of some of the rMSCs were apparent (FIG. 2C). Responsive cells progressively assumed neuronal morphological characteristics over the first 3 hours. Initially, cytoplasm in the flat rMSCs retracted towards the nucleus, forming a contracted multipolar, cell body, leaving membranous, process-like extensions peripherally (0-90 minutes).
To begin examining the hypothesis that the anti-oxidant properties of BME mediated induction of neuronal differentiation in MSCs, rMSCs were treated with other anti-oxidants, e.g., dimethylsulfoxide (DMSO), butylated hydroxyanisole (BHA), or butylated hydroxytoluene (BHT), ascorbic acid, dimethylfumarate, n-acetylcysteine, and the like, both alone and in combination with each other.

[2] = test system: rMSC clones; experiment: Differentiation of clonal rMSC lines; assay type: cell-based, rat; conditions: after BME treatment
Procedure: To establish clones, rMSCs were plated at approximately 10 cells per square centimeters, grown to 50-150 cells per colony, isolated with cloning cylinders, transferred to separate wells and eventually to individual flasks.

[3] = test system: hMSCs; experiment: Neuronal differentiation of human MSCs; assay type: cell-based
Procedure: Cells from passage two were subjected to the neuronal differentiation protocol and stained for NSE or NF-M expression. […] Contracted cell bodies elaborated processes and stained strongly for NSE expression within 3 hours (FIGS. 8A and 8B). Transitional cells were also evident ( ? ). […] Growth cone morphologies with filopodial extensions ( ? ) were clearly evident on the processes elaborated by paired neurons depicted in the image in FIG. 8C.

[4] = test system: rMSCs; experiment: Western blot for NSE in rMSC cultures; assay type: cell-based, rat; conditions: 5 hours post BME treatment, versus uninduced rMSCs
Procedure: […] of protein extract from untreated (U) and BME-induced (I) rMSC cultures was separated on a 4%-20% gradient acrylamide gel and electrophoretically transferred to a nylon membrane. The Western blot was probed for tubulin, expression using an anti-tubulin monoclonal antibody (Sigma Chemical Co., St. Louis, Mo.) followed by secondary antibody conjugated with horse radish peroxidase (HRP). Color development was performed using enhanced chemiluminescence reagents (Amersham, Piscataway, N.J.). The blot was then stripped and probed for NSE expression using anti-NSE polyclonal antibody (ICN). Again, the secondary antibodies were HRP-conjugated, and color was developed using ECL reagents, […]

[5] = test system: rMSCs; experiment: Immunocytochemistry for neuronal markers in treated rMSCs; assay type: cell-based, rat
Procedure: Cultured rMSCs were fixed with 4% paraformaldehyde, incubated with primary antibody overnight at 4° C., incubated with secondary antibody for one hour, followed by exposure to avidin-biotin complex for one hour at 25° C. Diaminobenzidene (DAB) served as chromogenic substrate for HRP.
To further characterize potential neuronal differentiation, BME-treated cultures were stained to detect expression of the neuronal marker neuron-specific enolase (NSE). Unresponsive, flat rMSCs expressed very low, but detectable, levels of NSE protein, consistent with previous detection of minute amounts of protein and/or message in cells of bone marrow origin (Pechumer et al., 1993, Lab. Invest. 89:743-749; Reid et al., 1991, Clin. Pathol. 44:483-486; vanObberghen et al., 1988, J. Neurosci. Res. 19:450-456).

CC(=O)N[C@@H](CS)C(=O)O [n-acetylcysteine]
neuronal morphologies elicited by anti-oxidant treatment [1]: elicited neuronal morphologies

Cc1cc(C(C)(C)C)c(O)c(C(C)(C)C)c1 [BHT, butylated hydroxytoluene]
neuronal morphologies elicited by anti-oxidant treatment [1]: elicited neuronal morphologies

C[S+](C)[O-] [DMSO, dimethylsulfoxide]
neuronal morphologies elicited by anti-oxidant treatment [1]: elicited neuronal morphologies

OCCS [BME, beta-mercaptoethanol]
generation of NSE-positive neurons from single-cell clones [2]: differentiated into NSE-positive neurons; also recorded: generated refractile, process-bearing, NSE-positive cells
NF-M expression ([3]; hMSC-derived neurons): expressed NF-M
neuronal characteristics and NSE expression ([3]; hMSCs passage two, after BME treatment): attained neuronal characterises and increased NSE expression
time to strong NSE staining ([3]; hMSCs, BME treatment): ≤ 3 h
NSE expression (Western blot) [4]: significant increase in NSE expression
NSE expression (immunostaining) ([5]; BME-treated cultures): increased expression of NSE
time to increased expression of neuronal marker NSE ([5]; after treatment): ≤ 30 min
NF-M expression (immunostaining) ([5]; cells exhibiting neuronal morphologies): increased expression of NF-M
NeuN expression (immunostaining) ([5]; differentiated cultures): stained for NeuN expression
percentage of cells adopting a neuronal morphology ([1]; SFM with 1-10 millimolar BME, effect of concentration): increased at higher BME concentrations
percentage of cells adopting a neuronal morphology ([1]; effect of BME pretreatment): enhanced by BME pretreatment
time to apparent changes in morphology ([1]; serum-free medium containing 1-10 millimolar BME (SFM/BME)): ≤ 60 minutes
changes in morphology ([1]; sub-confluent cultures, media supplemented with 1 mM BME for 24 hours): no changes in morphology were evident

O=C1O[C@H]([C@@H](O)CO)C(O)=C1O [ascorbic acid]
neuronal morphologies elicited by anti-oxidant treatment [1]: elicited neuronal morphologies

COc1ccc(O)c(C(C)(C)C)c1 [BHA, butylated hydroxyanisole]
neuronal morphologies elicited by anti-oxidant treatment [1]: elicited neuronal morphologies
